Results as given in ChEMBL document CHEMBL1201862, “PubChem BioAssay data set” (2004).
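Method: 48-hour compound exposure of cells in 96-well plates, five concentrations, linear interpolation of endpoints. At the GI50, growth is halved.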 Active and inactive are the calls of the source. Rule as the data show it: active = GI50 up to about 1.1 µM and inactive = higher.

Assays:
Test in all cases: inhibition of tumour cell growth, NCI panel, 48 h
CAKI-1 = system: CAKI-1
CCRF-CEM = system: CCRF-CEM
HOP-92 = system: HOP-92
IGROV-1 = system: IGROV-1
MCF7 = system: MCF7
MDA-MB-435 = system: MDA-MB-435
NCI/ADR-RES = system: NCI/ADR-RES
OVCAR-3 = system: OVCAR-3
OVCAR-4 = system: OVCAR-4
RPMI-8226 = system: RPMI-8226
RXF 393 = system: RXF 393
SF-268 = system: SF-268
SF-295 = system: SF-295
SK-MEL-28 = system: SK-MEL-28
SK-MEL-2 = system: SK-MEL-2
SK-MEL-5 = system: SK-MEL-5
SN12C = system: SN12C
SNB-75 = system: SNB-75
SW-620 = system: SW-620
UACC-257 = system: UACC-257

SMILES | GI50 (CAKI-1) | GI50 (CCRF-CEM) | GI50 (HOP-92) | GI50 (IGROV-1) | GI50 (MCF7) | GI50 (MDA-MB-435) | GI50 (NCI/ADR-RES) | GI50 (OVCAR-3) | GI50 (OVCAR-4) | GI50 (RPMI-8226) | GI50 (RXF 393) | GI50 (SF-268) | GI50 (SF-295) | GI50 (SK-MEL-28) | GI50 (SK-MEL-2) | GI50 (SK-MEL-5) | GI50 (SN12C) | GI50 (SNB-75) | GI50 (SW-620) | GI50 (UACC-257)
O=c1onc2c3ccccc3ncn12 | > 100 µM (inactive) | > 100 µM (inactive) | > 100 µM (inactive) | > 100 µM (inactive) | > 100 µM (inactive) | > 100 µM (inactive) | > 100 µM (inactive) | > 100 µM (inactive) | > 100 µM (inactive) | > 100 µM (inactive) | > 100 µM (inactive) | > 100 µM (inactive) | > 100 µM (inactive) | > 100 µM (inactive) | > 100 µM (inactive) | > 100 µM (inactive) | > 100 µM (inactive) | > 100 µM (inactive) | > 100 µM (inactive) | > 100 µM (inactive)
COc1cc(-c2oc3ccccc3c(=O)c2O)cc(OC)c1OC | 26.2 µM (inactive) | 3.32 µM (inactive) | 4.06 µM (inactive) | 6.9 µM (inactive) | > 100 µM (inactive) | > 100 µM (inactive) | 4.32 µM (inactive) | 4.28 µM (inactive) | 7 µM (inactive) | 3.43 µM (inactive) | 15.6 µM (inactive) | 11.7 µM (inactive) | 35.7 µM (inactive) | > 100 µM (inactive) | > 100 µM (inactive) | 6.58 µM (inactive) | > 100 µM (inactive) | 6.82 µM (inactive) | > 80.2 µM (inactive) | > 69.3 µM (inactive)
CCOc1cccc(/C=N\c2ccccc2SSc2ccccc2/N=C\c2cccc(OCC)c2O)c1O | 9.95 µM (inactive) | 3.32 µM (inactive) | 11.5 µM (inactive) | 2.92 µM (inactive) | 0.326 µM (active) | 11.5 µM (inactive) | 3.55 µM (inactive) | 2.62 µM (inactive) | 4 µM (inactive) | 3.73 µM (inactive) | 7.46 µM (inactive) | 4.22 µM (inactive) | 12.6 µM (inactive) | 12.4 µM (inactive) | 16.5 µM (inactive) | 2.21 µM (inactive) | 9.79 µM (inactive) | 19.7 µM (inactive) | 8.49 µM (inactive) | 5.77 µM (inactive)
Nc1nc(-c2ccccc2/N=N/N2CCCC2)nc2ccccc12 | 4.14 µM (inactive) | 3.07 µM (inactive) | 8 µM (inactive) | 2.91 µM (inactive) | 3.48 µM (inactive) | 2.56 µM (inactive) | 2.99 µM (inactive) | 1.85 µM (inactive) | 5.96 µM (inactive) | 2 µM (inactive) | 5.73 µM (inactive) | 6.7 µM (inactive) | 2.32 µM (inactive) | 12.2 µM (inactive) | 13.2 µM (inactive) | 4.5 µM (inactive) | 1.59 µM (inactive) | 11.5 µM (inactive) | 1.74 µM (inactive) | 3.51 µM (inactive)
